Data from US20080293696A1, “2-Aminoarylcarboxamides Useful as Cancer Chemotherapeutic Agents” (Bayer Pharmaceuticals Corporation, priority 2004, published 2008).
pIC50: −log10 of the molar value.

System: PAKT/PKB (p-(S473) AKT) in H209 small cell lung carcinoma cells stimulated with Stem Cell Factor
Assay: PAKT/PKB Cytoblot Assay with H209 cells (SCF-stimulated p-(S473) AKT)
Format: cell-based
Settings: Homo sapiens, NCI-H209, compound 1 hour, SCF 25 ng/mL 5 minutes
Outline: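 H209 SCLC cells kept overnight in RPMI with 0.1% BSA were pretreated 1 h at 37 °C with compound (0.01–10 μM final), then stimulated with SCF 25 ng/mL for 5 min. After formaldehyde/methanol fixation, p-(S473) AKT was detected in-cell with HRP secondary and ECL chemiluminescence, and IC50 was derived.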

[1] = group: between 500 nM and 1 μM (units in value)

pIC50 (group: less than 500 nM) | SMILES | also measured
> 6.30 | COCC(=O)Nc1cc(CNc2ccccc2C(=O)Nc2ccc3c(c2)OC(F)(F)O3)ccn1 [Example 155, N-(2,2-difluoro-1,3-benzodioxol-5-yl)-2-[({2-[(methoxyacetyl)amino]pyridin-4-yl}methyl)amino]benzamide] | –
> 6.30 | CC(=O)OCC(=O)Nc1cc(CNc2ccccc2C(=O)Nc2ccc3c(c2)OC(F)(F)O3)ccn1 [Example 156, 2-[(4-{[(2-{[(2,2-difluoro-1,3-benzodioxol-5-yl)amino]carbonyl}phenyl)amino]methyl}pyridin-2-yl)aminol-2-oxoethyl acetate] | –
> 6.30 | COC(=O)COCC(=O)Nc1cc(CNc2ccccc2C(=O)Nc2ccc3c(c2)OC(F)(F)O3)ccn1 [Example 157] | –
> 6.30 | CCOC(=O)CCC(=O)N(C(=O)CCC(=O)OCC)c1cc(CNc2ccccc2C(=O)Nc2ccc3c(c2)OC(F)(F)O3)ccn1 [Example 158, diethyl 4,4′-[(4-{[(2-{[(2,2-difluoro-1,3-benzodioxol-5-yl)amino]carbonyl}phenyl)amino]methyl}pyridin-2-yl)imino]bis(4-oxobutanoate)] | –
> 6.30 | COC(C)(C)C(=O)Nc1cc(CNc2ccccc2C(=O)Nc2ccc3c(c2)OC(F)(F)O3)ccn1 [Example 159, N-(2,2-difluoro-1,3-benzodioxol-5-yl)-2-[({2-[(2-methoxy-2-methylpropanoyl)amino]pyridin-4-yl}methyl)amino]benzamide] | –
> 6.30 | CCNC(=O)Nc1cc(CNc2ccccc2C(=O)Nc2ccc3c(c2)OC(F)(F)O3)ccn1 [Example 162, N-(2,2-difluoro-1,3-benzodioxol-5-yl)-2-{[(2-{[(ethylamino)carbonyl]amino}pyridin-4-yl)methyl]amino}benzamide] | –
– | COc1ccc(NC(=O)Nc2cc(CNc3ccccc3C(=O)Nc3ccc4c(c3)OC(F)(F)O4)ccn2)cc1 [Example 163, N-(2,2-difluoro-1,3-benzodioxol-5-yl)-2-({[2-({[(4-methoxyphenyl)amino]carbonyl}amino)pyridin-4-yl]methyl}amino)benzamide] | pIC50 [1]: 6.00 to 6.30
> 6.30 | CNC(=O)Nc1cc(CNc2ccccc2C(=O)Nc2ccc3c(c2)OC(F)(F)O3)ccn1 [Example 165, N-(2,2-difluoro-1,3-benzodioxol-5-yl)-2-{[(2-{[(methylamino)carbonyl]amino}pyridin-4-yl)methyl]amino}benzamide] | –
– | N#Cc1cccc(NC(=O)Nc2cc(CNc3ccccc3C(=O)Nc3ccc4c(c3)OC(F)(F)O4)ccn2)c1 [Example 166, 2-({[2-({[(3-cyanophenyl)amino]carbonyl}amino)pyridin-4-yl]methyl}amino)-N-(2,2-difluoro-1,3-benzodioxol-5-yl)benzamide] | pIC50 (group: between 1 and 3 μM): 5.52 to 6.00
– | COc1cccc(NC(=O)Nc2cc(CNc3ccccc3C(=O)Nc3ccc4c(c3)OC(F)(F)O4)ccn2)c1 [Example 167, N-(2,2-difluoro-1,3-benzodioxol-5-yl)-2-({[2-({[(3-methoxyphenyl)amino]carbonyl}amino)pyridin-4-yl]methyl}amino)benzamide] | pIC50 (group: between 1 and 3 μM): 5.52 to 6.00
> 6.30 | CCCNC(=O)Nc1cc(CNc2ccccc2C(=O)Nc2ccc3c(c2)OC(F)(F)O3)ccn1 [Example 169, N-(2,2-difluoro-1,3-benzodioxol-5-yl)-2-{[(2-{[(propylamino)carbonyl]amino}pyridin-4-yl)methyl]amino}benzamide] | –
> 6.30 | CCCCNC(=O)Nc1cc(CNc2ccccc2C(=O)Nc2ccc3c(c2)OC(F)(F)O3)ccn1 [Example 170, 2-{[(2-{[(butylamino)carbonyl]amino}pyridin-4-yl)methyl]amino}-N-(2,2-difluoro-1,3-benzodioxol-5-yl)benzamide] | –
– | Cc1cccc(CNC(=O)Nc2cc(CNc3ccccc3C(=O)Nc3ccc4c(c3)OC(F)(F)O4)ccn2)c1 [Example 171, N-(2,2-difluoro-1,3-benzodioxol-5-yl)-2-({[2-({[(3-methylbenzyl)amino]carbonyl}amino)pyridin-4-yl]methyl}amino)benzamide] | pIC50 (group: between 1 and 3 μM): 5.52 to 6.00
– | O=C(NCc1ccccc1)Nc1cc(CNc2ccccc2C(=O)Nc2ccc3c(c2)OC(F)(F)O3)ccn1 [Example 172, 2-{[(2-{[(benzylamino)carbonyl]amino}pyridin-4-yl)methyl]amino]-N-(2,2-difluoro-1,3-benzodioxol-5-yl)benzamide] | pIC50 [1]: 6.00 to 6.30
> 6.30 | O=C(NCc1ccco1)Nc1cc(CNc2ccccc2C(=O)Nc2ccc3c(c2)OC(F)(F)O3)ccn1 [Example 173, N-(2,2-difluoro-1,3-benzodioxol-5-yl)-2-({[2-({[(2-furylmethyl)amino]carbonyl}amino)pyridin-4-yl]methyl}amino)benzamide] | –
> 6.30 | CN(C)C(=O)Nc1cc(CNc2ccccc2C(=O)Nc2ccc3c(c2)OC(F)(F)O3)ccn1 [Example 174, N-(2,2-difluoro-1,3-benzodioxol-5-yl)-2-{[(2-{[(dimethylamino)carbonyl]amino}pyridin-4-yl)methyl]amino}benzamide] | –
> 6.30 | CS(=O)(=O)Nc1cc(CNc2ccccc2C(=O)Nc2ccc3c(c2)OC(F)(F)O3)ccn1 [Example 175, N-(2,2-difluoro-1,3-benzodioxol-5-yl)-2-[({2-[(methylsulfonyl)amino]pyridin-4-yl}methyl)amino]benzamide] | –
> 6.30 | Cc1csc(Nc2cc(CNc3ccccc3C(=O)Nc3ccc4c(c3)OC(F)(F)O4)ccn2)n1 [Example 176, N-(2,2-difluoro-1,3-benzodioxol-5-yl)-2-[({2-[(4-methyl-1,3-thiazol-2-yl)amino]pyridin-4-yl}methyl)amino]benzamide] | –
– | O=C(Nc1ccc2c(c1)OC(F)(F)O2)c1ccccc1NCc1ccnc(CO)c1 [Example 177, N-(2,2-difluoro-1,3-benzodioxol-5-yl)-2-({[2-(hydroxymethyl)pyridin-4-yl]methyl}amino)benzamide] | pIC50 [1]: 6.00 to 6.30
